From patent US20240083875A1, “DIHYDROISOQUINOLINYL DERIVATIVES” (UCB BIOPHARMA SRL, priority 2020, published 2024)

Legend:
[1] = biological target: T1, human GABAA receptor α1, β2 and γ2 subunits (Homo sapiens, UniProt P14867+P18507+P47870); test: Automated patch clamp studies on the GABAA receptor (IonFlux HT); assay type: cell-based; settings: 10 μM compound; 15 μM GABA as agonist; CHO-K1 cells expressing human GABAA α1β2γ2
T1 construct: expressed in transfected cells
Experimental: CHO-K1 cells stably expressing human GABAA receptor α1, β2 and γ2 subunits were used. The cells were harvested using trypsin and maintained in serum-free medium at room temperature. The cells were washed and re-suspended in extracellular solution before testing.
Experiments on human GABAA (α1β2γ2) channels were conducted using an automated patch clamp assay (IonFlux™ HT). Compounds were tested at 3 concentrations (0.1, 1, and 10 μM) in 3 to 4 cells. The external solution for recording GABAA currents was composed of sodium chloride 137 mM, potassium chloride 4 mM, calcium chloride 1.8 mM, magnesium chloride 1 mM, HEPES 10 mM, and glucose 10 mM. Both external and internal solutions were titrated with NaOH or KOH to obtain a pH of 7.35 or 7.3, respectively. The internal pipette solution contained potassium fluoride 70 mM, potassium chloride 60 mM, sodium chloride 70 mM, HEPES 5 mM, EGTA 5 mM, and Magnesium ATP 4 mM. The final concentration of vehicle used to dilute compounds was 0.33% DMSO in each well. Bicuculline (0.032 to 100 μM) was used as positive control inhibitor. GABA (15 μM) was used as agonist. All recordings were obtained from a holding potential of −60 mV.
The compound addition sequence was the following: one addition of the EC80 concentration of GABA was added to establish baseline response. Each concentration of compound was applied for 30 seconds followed by the addition of 15 μM GABA in the presence of the compound for 2 seconds. The process was repeated with the next ascending concentration of compound. Peak inward currents in response to the GABA additions in the presence of a single concentration of compound were measured. All compound data have been normalized to the baseline peak current induced by addition of 15 μM GABA for 2 seconds.

[2] = biological target: T2, dopamine D1 receptor (Homo sapiens, UniProt P21728); test: cAMP HTRF potentiation assay (PAM, in the presence of EC20 dopamine); assay type: cell-based; settings: for Erel (%): maximal % potentiation relative to dopamine maximal response (100%), EC20 dopamine, LMtk cells expressing D1 receptor; for EC50: potentiation of cAMP levels with EC20 dopamine (1.1 nM), LMtk mouse fibroblast cells expressing D1 receptor
T2 construct: host or cells: LMtk (Ltk-) mouse fibroblast cells
Experimental: The potentiation assay measures the ability of compounds to increase the levels of cAMP produced by a low-threshold concentration of dopamine. The concentration of dopamine used ([EC20]) is designed to produce 20% stimulation compared to the maximal response (100%) seen with increasing the concentration of dopamine. To measure this potentiation increasing concentrations of the compound with the [EC20] of dopamine are incubated and the potentiation is measured as increases in cAMP production and concentration of compound which produces 50% of the potentiation of the cAMP levels is measured.
Cells were cultured at 37° C. in a humidified atmosphere of 5% CO2. Cells were grown in DMEM-F12+GlutaMAX™-I medium (GIBCO®, Invitrogen, Merelbeke, Belgium) containing 10% fetal bovine serum (BioWhittaker®, Lonza, Verviers, Belgium), 400 μg/mL Geneticin (GIBCO®), 100 IU/mL Penicillin and 100 IU/mL Streptomycin (Pen-Strep solution, BioWhittaker®).
The measurement of changes in intracellular cyclic adenosinemonophopshpate (cAMP) was determined using the HTRF cAMP dynamic assay kit from CisBio (Codolet, France). Using homogenous time-resolved fluoresence technology, the assay is based on competition between native cAMP produced by cells and cAMP labelled with the dye d2. The tracer binding is determined by an anti-cAMP antibody labeled with cryptate. The effects of the compound alone (agonism) was determined by performing the assay in the absence of dopamine, whilst the effect of the compound as a positive allosteric modulator (PAM) was determined in the presence of an EC20 concentration of dopamine. Cells (20,000 per well) are incubated in 384 plates for 1 hour at room temperature in a final volume of 20 μLHBSS (Lonza, with calcium, magnesium and HEPES buffer 20 mM, pH 7.4) containing: isobutyl methylxanthine (Sigma, 0.1 mM final), varying concentrations of test compound (typically 10^−9.5M to […]) in the presence and absence of dopamine (1.1 nM final). The reaction is then terminated and the cells lysed by adding the d2 detection reagent in lysis buffer (10 microL) and the cryptate reagent in lysis buffer (10 microl) according to manufacturer's instructions. This is then incubated for a further 60 min at room temperature and changes in HTRF fluorescent emission ratio determined according to manufacturer's instructions using an Envision plate reader (Perkin Elmer, Zaventem, Belgium) with laser excitation. All incubations were performed in duplicate and results were compared to a concentration-effect curve to dopamine. (10^−11 M to 10^−6 M).
Data was analyzed using Excel and PRISM (GraphPad Software) to obtain pEC50 and Erel using the 4-parameter logistic equation (DeLean et al, 1978) where Erel is the fitted maximal response of the test compound minus basal expressed as a percentage relative to that obtained with dopamine which was defined as 100%.
The pEC50 of a compound is the −log10 of the concentration of the compound which produces 50% of the potentiation of the cAMP levels.
The Erel is the relative efficacy, defined as the maximal % potentiation produced by the compound compared to the maximal response produced by increasing concentrations of dopamine (Erel of 1=dopamine maximum response), has been measured.

T1 sequence (P14867 28-456): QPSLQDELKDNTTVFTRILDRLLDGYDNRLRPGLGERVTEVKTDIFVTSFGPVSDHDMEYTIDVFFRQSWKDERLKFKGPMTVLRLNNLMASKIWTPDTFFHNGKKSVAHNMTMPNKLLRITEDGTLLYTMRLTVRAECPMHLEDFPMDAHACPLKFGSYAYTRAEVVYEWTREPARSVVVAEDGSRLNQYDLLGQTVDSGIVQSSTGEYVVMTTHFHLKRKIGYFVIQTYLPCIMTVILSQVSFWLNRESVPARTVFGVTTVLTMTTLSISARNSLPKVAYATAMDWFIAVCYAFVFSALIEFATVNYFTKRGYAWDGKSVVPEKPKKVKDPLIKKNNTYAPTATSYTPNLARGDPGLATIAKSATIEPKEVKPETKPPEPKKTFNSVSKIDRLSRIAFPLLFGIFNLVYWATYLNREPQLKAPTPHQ
T1 sequence (P47870 25-512 limits assumed): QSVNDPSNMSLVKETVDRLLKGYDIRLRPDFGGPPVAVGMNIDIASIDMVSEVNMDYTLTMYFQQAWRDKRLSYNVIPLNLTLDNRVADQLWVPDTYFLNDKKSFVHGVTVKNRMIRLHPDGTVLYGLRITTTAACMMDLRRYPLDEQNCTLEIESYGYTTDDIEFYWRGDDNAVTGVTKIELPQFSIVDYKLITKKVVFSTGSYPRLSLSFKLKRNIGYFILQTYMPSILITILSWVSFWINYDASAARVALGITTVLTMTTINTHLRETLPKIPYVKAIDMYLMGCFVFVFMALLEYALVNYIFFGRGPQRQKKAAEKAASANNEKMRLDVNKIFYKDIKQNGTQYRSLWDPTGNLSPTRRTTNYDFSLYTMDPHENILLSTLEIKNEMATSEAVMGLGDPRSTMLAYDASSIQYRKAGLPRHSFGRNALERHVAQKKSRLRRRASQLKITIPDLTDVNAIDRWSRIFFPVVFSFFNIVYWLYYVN
T1 sequence (P18507 40-475): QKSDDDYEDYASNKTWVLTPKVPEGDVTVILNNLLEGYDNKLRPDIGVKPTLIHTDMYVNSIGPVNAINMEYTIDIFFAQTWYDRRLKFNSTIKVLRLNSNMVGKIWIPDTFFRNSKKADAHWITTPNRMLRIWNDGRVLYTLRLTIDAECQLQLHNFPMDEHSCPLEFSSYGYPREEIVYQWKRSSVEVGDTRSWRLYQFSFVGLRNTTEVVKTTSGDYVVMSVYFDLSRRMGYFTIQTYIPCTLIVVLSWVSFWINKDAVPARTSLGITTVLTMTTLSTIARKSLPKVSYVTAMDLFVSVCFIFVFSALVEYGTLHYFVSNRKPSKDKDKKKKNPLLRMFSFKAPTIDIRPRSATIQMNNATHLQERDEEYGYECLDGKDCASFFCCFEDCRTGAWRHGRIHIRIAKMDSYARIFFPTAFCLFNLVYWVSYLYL
T2 sequence (P21728 whole entry): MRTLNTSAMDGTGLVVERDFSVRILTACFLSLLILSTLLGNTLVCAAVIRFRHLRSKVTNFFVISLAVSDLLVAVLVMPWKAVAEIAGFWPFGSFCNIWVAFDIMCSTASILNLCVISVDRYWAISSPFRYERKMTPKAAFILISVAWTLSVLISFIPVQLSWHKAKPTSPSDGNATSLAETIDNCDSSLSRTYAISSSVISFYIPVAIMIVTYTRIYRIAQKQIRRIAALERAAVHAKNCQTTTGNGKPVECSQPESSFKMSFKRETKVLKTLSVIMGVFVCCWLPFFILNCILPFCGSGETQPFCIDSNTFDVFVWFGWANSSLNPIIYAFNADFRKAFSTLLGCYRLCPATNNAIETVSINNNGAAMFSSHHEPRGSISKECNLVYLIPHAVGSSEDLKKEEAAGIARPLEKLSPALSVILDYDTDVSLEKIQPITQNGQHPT

| SMILES | inhibition at 10 µM [1] [%] | Erel (%) [2] [%] | EC50 [2] [nM] |
| --- | --- | --- | --- |
| C[C@H]1c2cccc(-c3cnn(C)c3)c2C[C@H](CO)N1C(=O)Cc1c(Cl)ccc2c1c(Cl)nn2C [Example 1, 2-(3,5-dichloro-1-methyl-indazol-4-yl)-1-[(1S,3R)-3-(hydroxymethyl)-1-methyl-5-(1-methylpyrazol-4-yl)-3,4-dihydro-1H-isoquinolin-2-yl]ethanone] | 2.7 | 74 | 12.6 |
| C[C@H]1c2cccc(-c3cn[nH]c3)c2C[C@H](CO)N1C(=O)Cc1c(Cl)ccc2c1c(Cl)nn2C [Example 2, 2-(3,5-dichloro-1-methyl-indazol-4-yl)-1-[(1S,3R)-3-(hydroxymethyl)-1-methyl-5-(1H-pyrazol-4-yl)-3,4-dihydro-1H-isoquinolin-2-yl]ethanone] | 0 | 71 | 6.31 |
| C[C@H]1c2cccc(-c3cn[nH]c3)c2C[C@H](CO)N1C(=O)Cc1c(Cl)ccc2[nH]nc(Cl)c12 [Example 3, 2-(3,5-dichloro-1H-indazol-4-yl)-1-[(1S,3R)-3-(hydroxymethyl)-1-methyl-5-(1H-pyrazol-4-yl)-3,4-dihydro-1H-isoquinolin-2-yl]ethanone] | 7.8 | 61 | 6.31 |
| C[C@H]1c2cccc(-c3cnn(C)c3)c2C[C@H](CO)N1C(=O)Cc1c(Cl)ccc2[nH]nc(Cl)c12 [Example 4, 2-(3,5-dichloro-1H-indazol-4-yl)-1-[(1S,3R)-3-(hydroxymethyl)-1-methyl-5-(1-methylpyrazol-4-yl)-3,4-dihydro-1H-isoquinolin-2-yl]ethanone] | 10.1 | 63 | 7.94 |
